Experimental data taken from patent US8598232B2, “Process for the preparation of non-genotoxic diacetylrhein (diacerein) and formulations comprising non-genotoxic diacetylrhein” (Evultis SA, priority 2008, dated 2013).
Counter-ions that a name gives are not always drawn.

Assay: solubility in water of the potassium salt of Diacerein
Type: physicochemical
Details: in water at neutral pH (pH=7)
Experimental: Type A Process: The first step of the process (a.) is to salify the raw Diacerein to obtain a salt of Diacerein which is soluble in water. The water soluble salt of Diacerein is preferably an inorganic salt of Diacerein, more preferably a salt of Diacerein with an alkali metal. In a preferred embodiment, the salt of Diacerein is a potassium salt of Diacerein or a sodium salt of Diacerein. The solubility of potassium salt of Diacerein is around 1 g/50 ml of water at neutral pH (pH=7).

For `CC(=O)Oc1cccc2c1C(=O)c1c(OC(C)=O)cc(C(=O)O)cc1C2=O` [potassium salt of Diacerein, 1,8-diacetoxy-3-carboxyanthraquinone], the solubility was “around 1 g/50 ml”.
